Results on 4 molecules are retold here after patent publication US7977364B2, “Indazoles, benzisoxazoles and benzisothiazoles and their use as estrogenic agents” (Laboratoire Thermamex, priority 2004, dated 2011).

The subject of series [1] is human endometrial adenocarcinoma Ishikawa cells. The series can be described thus: Estrogenic and anti-estrogenic activities in vitro: induction of alkaline phosphatase (APase) activity. Type of series: cell-based. Particulars: for estrogenic effect in alkaline phosphatase activity in the Ishikawa cell model: in words; for EC50: Homo sapiens, Ishikawa, 96 h, compound alone, four days, ND = not detected, read-out: Estrogenic activity EC50 (nM) ± S.E.M. The procedure:
The estrogenic and anti-estrogenic potentials of new compounds were evaluated using the induction of alkaline phosphatase (APase) activity, an estrogen specific response in human endometrial adenocarcinoma Ishikawa cells (Botella J., J Steroid Biochem Molec Biol, 1995, 55: 77-84; Littlefield et al., Endocrinology, 1990, 127: 2757-2762).
Ishikawa cells were routinely grown as monolayers in Dulbecco's Modified Eagle's medium (DMEM) containing 4 mM Glutamax I and supplemented with 10% of decomplemented fetal calf serum (dFCS) and antibiotics. They were maintained in a humidified atmosphere of 5% CO2 and 95% air, at 37±0.1° C. Stocks were performed once a week to maintain continuous exponential growth.
For studies, Ishikawa cells were plated into 96-well microplates. The next day, the medium was changed to a phenol red-free DMEM containing 5% dFCS stripped of endogenous estrogens by dextran coated charcoal treatment.
At the end of the incubation period, APase activity was assayed by a method involving the hydrolysis of p-nitrophenyl phosphate to p-nitrophenol at pH 9.8 and spectrophotometric determination of the product at 405 nm.
In brief, the microplates were first rinsed twice with cold phosphate buffered solution and then placed at −80° C. for at least 15 minutes. After thawing at room temperature for 5-10 minutes, the plates were put on ice and 50 μl ice-cold solution containing 5 mM p-nitrophenyl phosphate was added to each well. The plates were warmed to room temperature to allow for the development of the enzymatic reaction (t0). After a 15 to 60 minute incubation period, the intensity of the yellow color generated by the production of p-nitrophenol was measured into each well at 405 nm using a microplate reader (Wallac, model 1420 Victor^2). […] Sigmoidal dose-response curves were plotted and EC50 (estrogenic effect) and IC50 (anti-estrogenic effect) values were calculated for each compound.

The target of series [2] is T1, purified full-length recombinant human ERα (Homo sapiens, UniProt P03372).
T1 sequence (P03372 1-595): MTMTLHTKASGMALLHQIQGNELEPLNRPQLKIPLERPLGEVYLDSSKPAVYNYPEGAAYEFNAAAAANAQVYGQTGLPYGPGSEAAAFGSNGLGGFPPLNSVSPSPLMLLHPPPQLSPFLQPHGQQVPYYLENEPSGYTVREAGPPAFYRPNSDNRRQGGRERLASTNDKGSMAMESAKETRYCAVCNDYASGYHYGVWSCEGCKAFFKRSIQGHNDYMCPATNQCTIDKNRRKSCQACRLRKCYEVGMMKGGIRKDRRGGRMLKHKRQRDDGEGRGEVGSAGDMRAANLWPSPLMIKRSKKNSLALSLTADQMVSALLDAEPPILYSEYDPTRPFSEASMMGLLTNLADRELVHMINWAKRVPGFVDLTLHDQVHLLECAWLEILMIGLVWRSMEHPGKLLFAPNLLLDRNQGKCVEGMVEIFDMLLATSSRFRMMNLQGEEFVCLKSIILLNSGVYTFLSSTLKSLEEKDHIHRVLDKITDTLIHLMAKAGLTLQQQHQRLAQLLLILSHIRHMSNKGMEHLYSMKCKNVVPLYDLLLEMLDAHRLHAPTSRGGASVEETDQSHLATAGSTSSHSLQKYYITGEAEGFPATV
The series can be described thus: Estrogen receptor α competitive radiometric binding assay ([3H]-E2). Particulars: for RBA (%) Mean ± S.E.M, ER α: ratio of IC50s of E2 and competitor, E2 set at 100%.
Experimental: (§1) Relative binding affinities (RBA) were determined by competitive radiometric binding assays, using purified full-length recombinant human ERα and ERβ (PanVera, Madison, Wis.). […] After shaking for a few seconds and centrifugation at 1500 g and 4° C. for 10 minutes, 150 μl/well of Optiphase ‘Super Mix’ scintillation liquid was mixed with 50 μl of supernatant of each sample and the radioactivity was measured in a MicroBeta counter (Wallac, Turku, Finland). Data were evaluated by a sigmoidal dose-response curve (Prism, GraphPad Software Inc.) to estimate the concentration of competitor at half-maximal specific binding (IC50). […] The selectivity for ERα and ERβ was obtained from the ratio R of the IC50 for ERα to the IC50 for ERβ for each test compound.

For the next series, the system named is Prepubescent female rats. The series can be described thus: Estrogenic / uterotrophic activity in vivo (uterus wet weight). The arrangement: species or system rat. The conditions noted are these: Rattus norvegicus, po, 72 h, orally 3 mg/rat/day for 3 days, read-out: % stimulation vs vehicle (uterus weight). The procedure:
Prepubescent female rats were orally treated at 3 mg/rat/day for 3 days. On the day following the last treatment, uteri were removed and wet weights were recorded.
The results are expressed as % of stimulation of uterus weight in comparison with vehicles. […]
Prepubescent female rats were orally treated with 0.3; 1; 3 or 10 mg/rat/day for 3 days. On the day following the last treatment, uteri were removed and wet weights were recorded.

In series [3] the test system is human breast cancer cell line MCF-7. The series can be described thus: Proliferative activity in vitro (ATP luminescence, 6 days). Particulars: Homo sapiens, MCF7, 144 h; for activity at 1 µM: MCF-7, 10^−6 M, read-out: Effect at 10^−6 M (% of control); for activity at 1 µM / activity at 0.01 µM: six days; for activity at 0.01 µM: MCF-7, 10^−8 M, read-out: Effect at 10^−8 M (% of control); for EC50: read-out: Cell proliferation EC50 (nM) ± S.E.M. Type of series: cell-based. The protocol: The proliferative effect of the compounds of the invention was evaluated on human breast cancer cell line MCF-7 by measuring the number of viable cells after 6 days of treatment.
MCF-7 cells were routinely cultured as monolayers in Dulbecco's modified Eagle's medium (DMEM) containing 4 mM Glutamax and 4.5 g/l glucose and supplemented with 5% (v/v) decomplemented fetal calf serum (dFCS) and antibiotics.
Cells were plated at 2.10^6 cells/75 cm^2 flasks and incubated at 37° C. in a humidified atmosphere containing 5% CO2. They were passaged once weekly to maintain continuous exponential growth. Forty eight hours before the start of an experiment, near-confluent cells were changed to a phenol red free DMEM containing 5% steroid-stripped dFCS by dextran coated charcoal treatment (DCC-DMEM). On the day of the experiment, cells were harvested by brief exposure to trypsin and plated in DCC-DMEM in 96-well microplates at a density of 4.10^3 cells/well. The next day, the medium was renewed and test compounds, diluted appropriately in estrogen-free DMEM, were added and incubated for six days. […] At the end of the incubation period, cell proliferation was evaluated by quantitation of the cellular ATP content which signals the presence of metabolically active cells.
The assay, based on the ATP-dependent luciferase reaction, enables generation of a luminescent signal proportional to the amount of ATP present. As there is a linear relationship between the amount of ATP and the number of viable cells present in culture, the luminescent signal allowed to precisely evaluate cell proliferation (Crouch, S. P. M. et al. J. Immunol. Meth., 1993, 160, 81; Kangas, L. et al. Med. Biol. 1984, 62, 338; Petty, R. D. et al. J. Biolum. Chemilum. 1995, 10, 29).
In brief, the microplates were inverted to discard the culture medium and 100 μl of fresh medium was added into each well. The microplates were equilibrated at room temperature for approximately 30 minutes. 100 μl of luciferase reagent was added into each well and contents were mixed for 2 minutes to induce cell lysis. The plates were incubated at room temperature for 10 minutes to stabilize luminescence signal.
Luminescence was recorded using a microplate reader (Wallac, model 1420 Victor^2) and results were expressed as percentage of the control luminescence. Sigmoidal dose-response curves were plotted and EC50 values were calculated for each compound in order to evaluate their proliferative potency.

Series [4] concerns the target purified full-length recombinant human ERβ (Homo sapiens, UniProt Q92731). The series can be described thus: Estrogen receptor β competitive radiometric binding assay ([3H]-E2). Particulars: for selectivity for the human recombinant estrogen receptor β: in words; for RBA (%) Mean ± S.E.M, ER β: ratio of IC50s of E2 and competitor, E2 set at 100%; for R (IC50s) αβ: ratio of the IC50 for ERα to the IC50 for ERβ.
Experimental: as §1

The next series concerns ovariectomized rats. The series can be described thus: Hot flush model in vivo: tail skin temperature, uteri and body weight. The conditions noted are these: 3 mg/rat/day.
The test system of another series is rats. The series can be described thus: Forced swimming test (antidepressant activity, immobility duration). Type of series: in vivo, rat. From the text: Antidepressant effect of estradiol was recently reported in studies using ER β KO mice model. In addition, ER β localization in dorsal raphe nucleus area in rat has been described. The gold standard test for antidepressant potency of compound consist in the forced swimming test, in this experiment antidepressants could be distinguished from psychostimulants which decreased immobility at doses which increased general activity. In order to investigate the putative antidepressant potency of the compounds reported here, the forced swimming test was performed according to the following design. The animals were housed six per cage under standard colony conditions, with a 12 h light/dark cycle and ad libitum food and water. They were allowed to acclimatize to the colony for at least 7 days prior to any experimentation. For subcutaneous administration, the compound of Example 23 was dissolved in olive oil and diluted to the desired concentration on the day of administration. For positive control, intraperitoneal (i.p.) injection of desipramine was done. Desipramine was dissolved in double-distilled water (10 mg/kg). The experiments were conducted 30 min after the positive control drug treatment (only for desipramine treatment). Other compounds, ie: estradiol and the compound of Example 23 were daily injected subcutaneously in rats, during a 7 days period. Acquisition were performed on day 8 (24 h after the last administration of items) and day 9 (48 h after estradiol or compound 23 administration), respectively. Data acquired 24 hours after the last administration consisted in the “naïve animal group”, these animals had never been previously tested in the device. Data acquired 48 hours after a last administration of compounds consisted in “trained animal group”.
On the 8th, the forced swim test was performed. This study was carried out in rats according to the methods described by Porsolt (Eur. J. Pharm., 1978). Briefly, rats were placed individually in glass cylinders (height: 40 cm, diameter: 18 cm) containing 25 cm of water at 25° C. Ten minutes later, rats were removed and dried before being returned to their home cages. The animals were replaced in the cylinders 24 h later, and the procedure was repeated, and a 10-min observation period was recorded.

Where two headings read alike, the source gives them in different places.

Chain of purified full-length recombinant human ERβ (Q92731 whole entry): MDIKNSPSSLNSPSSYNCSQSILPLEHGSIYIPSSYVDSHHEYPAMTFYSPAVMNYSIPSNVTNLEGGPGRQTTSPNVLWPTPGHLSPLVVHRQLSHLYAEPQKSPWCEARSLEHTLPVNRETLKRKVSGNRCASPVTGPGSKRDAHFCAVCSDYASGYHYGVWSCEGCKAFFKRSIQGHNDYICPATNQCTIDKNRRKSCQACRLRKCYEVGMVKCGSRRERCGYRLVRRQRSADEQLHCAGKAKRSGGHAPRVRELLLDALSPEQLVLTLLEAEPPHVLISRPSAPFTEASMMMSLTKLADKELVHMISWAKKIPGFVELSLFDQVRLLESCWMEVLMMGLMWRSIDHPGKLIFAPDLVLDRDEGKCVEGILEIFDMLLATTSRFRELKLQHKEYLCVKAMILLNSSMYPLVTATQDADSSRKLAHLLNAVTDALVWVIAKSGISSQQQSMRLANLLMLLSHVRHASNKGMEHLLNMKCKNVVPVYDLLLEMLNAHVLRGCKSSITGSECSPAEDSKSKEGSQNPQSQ

`N#CC(Cc1ccc(O)c(O)c1)c1noc2cc(O)ccc12` (stereo not shown) [Ex 86, 2-(6-hydroxy-1,2-benzisoxazol-3-yl)-3-(3,4-dihydroxyphenyl) propanenitrile] registered a melting point of 154 °C. For the same molecule, the “estrogenic effect in alkaline phosphatase activity in the Ishikawa cell model” value in series [1] is on record as “weak estrogenic effect”. Besides, in series [2], the IC50 is 1890 ± 365 nM and the “RBA (%) Mean ± S.E.M, ER α” value is reported as 0.2 ± 0.03%. Further, the change in vivo at 3 mg with Prepubescent female rats (Table 4) worked out at 25%. In addition, in series [3], the activity at 1 µM was 139% and the activity at 0.01 µM turned out to be 85.6%. In addition, the EC50 in series [3] (MCF-7, six days) was found to be 466 ± 34 nM. For the same molecule, in series [4], the IC50 is 135 ± 31 nM; the “selectivity for the human recombinant estrogen receptor β” value was “marked selectivity”; the “RBA (%) Mean ± S.E.M, ER β” value was 2.4 ± 0.4%; the “R (IC50s) αβ” value came out at 14.1.

In turn, `Oc1ccc2c(C3CCCCC3)nsc2c1` [Ex 93, 3-cyclohexyl-1,2-benzisothiazol-6-ol] had a melting point of 190 °C. Further, in series [1], the EC50 was determined as 124 ± 8.9 nM and the “estrogenic effect in alkaline phosphatase activity in the Ishikawa cell model” value is “weak estrogenic effect”. In series [2], the IC50 came out at 88.6 ± 11.7 nM and the “RBA (%) Mean ± S.E.M, ER α” value was found to be 1.3 ± 0.2%. Moreover, the change in vivo at 3 mg with Prepubescent female rats (Table 4) stood at 88%. Besides, in series [3], the activity at 1 µM was 156% and the activity at 0.01 µM came out at 116%. In addition, the EC50 in series [3] (MCF-7, six days) turned out to be 16.1 ± 2.6 nM. In addition, in series [4], the IC50 is 37.8 ± 5.4 nM; the “selectivity for the human recombinant estrogen receptor β” value is “marked selectivity”; the “RBA (%) Mean ± S.E.M, ER β” value is recorded as 5.1 ± 0.8%; the “R (IC50s) αβ” value was found to be 2.3.

Take `C[C@]12CC[C@@H]3c4ccc(O)cc4CC[C@H]3[C@@H]1CC[C@@H]2O` [Example E2, 17β-estradiol, reference compound]: the EC50 in series [1] worked out at 0.1 ± 0.05 nM. For the same molecule, the change in vivo at 3 mg with Prepubescent female rats (Table 4) amounted to 526%. In addition, in the series with Prepubescent female rats (Table 5), the change in vivo at 3 mg is 333%. For the same molecule, in series [3], the EC50 is 0.01 nM, the activity at 1 µM worked out at 205% and the activity at 0.01 µM is 212%. For the same molecule, in the series with ovariectomized rats, the “TST Variation day 1 vs day 0” value is listed as −4.8 C. °, the “TST Variation day 4 vs day 0” value is −3.5 C. ° and the “TST Variation day 7 vs day 0” value is given as −5.6 C. °. In the series on ovariectomized rats (after one week treatment), the “Body weights (% increase vs vehicle)” value was −10% and the “Uteri weight (% increase vs vehicle)” value was determined as 273%. Further, the “immobility duration, Naïve animals” value with rats (0.007 mg/rat/day s.c. 7 days, 24 h after last administration, 10 minutes test) worked out at 22.5 ± 7.1 s. The “immobility duration, Trained animals” value with rats (0.007 mg/rat/day s.c. 7 days, 48 h after last administration, 10 minutes test) was 79.2 ± 23.0 s. The antidepressor potency entry with rats (24 h and 48 h after administration, in words) is reported as “confirmation of the antidepressor potency”.

`CNCCCN1c2ccccc2CCc2ccccc21` [desipramine, reference compound]: the “immobility duration, Trained animals” value in the series on rats (dosage 30 (mg/rat/day) as in table, i.p., 30 min before test, 10 minutes test) worked out at 2.6 ± 1.5 s.

One may read the IC50 as the concentration at which inhibition is half-maximal. A word on the melting point: it is the temperature, or range, at which the solid turns liquid.
